PMC4134938 (Clinical cancer research : an official journal of the …, 2009)
Like-named read-outs stand apart in the source and are kept apart here.

Tests used:
[1] = system: thymidylate synthase (TS); experiment: TS tumor gene expression by RT-PCR in paired biopsies; assay type: in vivo, human
[2] = Vorinostat serum pharmacokinetics; assay type: in vivo, human; settings: for AUC / Tmax / half-life / Cmax: human, po
[3] = system: thymidylate synthase (TS); experiment: TS tumor expression by immunohistochemistry in paired liver metastasis biopsies; assay type: in vivo, human; settings: for Change in TS staining intensity (IHC): day 4 vs pre-treatment
[4] = system: thymidylate synthase (TS); settings: ref [28], [29], cited from earlier work
[5] = system: patients with refractory colorectal cancer
[6] = system: metastatic colorectal cancer; experiment: Antitumor response by CT; assay type: in vivo, human; settings: 21 assessable patients, vorinostat + FOLFOX
[7] = system: patients with refractory colorectal cancer; experiment: Toxicity assessment per NCI CTC 3.0; assay type: in vivo, human
[8] = read-out: Cmax of vorinostat; single-agent 900 mg/m^2 i.v. over 2 hours x 3 days every 3 weeks; ref [26]; cited from earlier work
[9] = 5-FU plasma pharmacokinetics; assay type: in vivo, human; settings: for AUC / Cmax / Css: plasma 5-FU, mean ± SD
[10] = serum, 100 mg, vorinostat 100 mg PO BID, Day 1, serum, mean
[11] = serum, 200 mg, vorinostat 200 mg PO BID, Day 5 (with FOLFOX), serum, mean
[12] = serum, 300 mg, vorinostat 300 mg PO BID, Day 1, serum, mean
[13] = serum, 300 mg, vorinostat 300 mg PO BID, Day 5 (with FOLFOX), serum, mean
[14] = serum, 400 mg, vorinostat 400 mg PO BID, Day 1, serum, mean
[15] = serum, 400 mg, vorinostat 400 mg PO BID, Day 5 (with FOLFOX), serum, mean
[16] = DL4 vorinostat 400 mg BID+FOLFOX, 4 patients, all cycles
[17] = all dose levels, 21 patients, vorinostat + FOLFOX
[18] = maintenance dose 2400 mg/m^2, vorinostat 100 mg
[19] = maintenance dose 2400 mg/m^2, vorinostat 200 mg
[20] = maintenance dose 2400 mg/m^2, vorinostat 300 mg
[21] = maintenance dose 2400 mg/m^2, vorinostat 400 mg

O=C(CCCCCCC(=O)Nc1ccccc1)NO [vorinostat, Suberoylanilide Hydroxamic Acid]
Patients without any change in TS expression (RT-PCR) ([1]; 6 patients with paired biopsies): four
Patients with down-regulation of TS (RT-PCR) ([1]; paired tumor biopsies, day 4 of vorinostat vs pre-treatment (DL1 and DL4)): 2 of 6
Decrease in TS gene expression ([1]; patient at DL1 (vorinostat 100 mg PO BID)): ~50%
TS gene expression relative to β-actin ([1]; patient at DL1, before vorinostat): 0.92
TS gene expression relative to β-actin ([1]; patient at DL1, following vorinostat treatment): 0.45
Decrease in TS gene expression ([1]; patient at DL4 (vorinostat 400 mg PO BID)): approximately 33%
TS gene expression relative to β-actin ([1]; patient at DL4, before vorinostat): 2.27
TS gene expression relative to β-actin ([1]; patient at DL4, following vorinostat treatment): 1.58
AUC [2, 10]: 2.5 µM·h
Tmax [2, 10]: 2.4 h
half-life ([2]; serum, 100 mg, t1/2, vorinostat 100 mg PO BID, Day 1, serum, mean): 1.5 h
AUC ([2]; serum, 200 mg, vorinostat 200 mg PO BID, Day 1, serum, mean): 1.9 µM·h
AUC [2, 11]: 3.3 µM·h
Cmax ([2]; serum, 200 mg, Cmax, vorinostat 200 mg PO BID, Day 1, serum, mean): 0.816 µM
Cmax ([2]; serum, 200 mg, Cmax, vorinostat 200 mg PO BID, Day 5 (with FOLFOX), serum, mean): 0.894 µM
Tmax [2, 11]: 2.7 h
half-life ([2]; serum, 200 mg, t1/2, vorinostat 200 mg PO BID, Day 1, serum, mean): 1.2 h
AUC [2, 12]: 4.4 µM·h
AUC [2, 13]: 6.8 µM·h
Cmax ([2]; serum, 300 mg, Cmax, vorinostat 300 mg PO BID, Day 1, serum, mean): 1.46 µM
Cmax ([2]; serum, 300 mg, Cmax, vorinostat 300 mg PO BID, Day 5 (with FOLFOX), serum, mean): 0.95 µM
Tmax [2, 12]: 1.6 h
Tmax [2, 13]: 2.4 h
half-life ([2]; serum, 300 mg, t1/2, vorinostat 300 mg PO BID, Day 1, serum, mean): 2.3 h
half-life ([2]; serum, 300 mg, t1/2, vorinostat 300 mg PO BID, Day 5 (with FOLFOX), serum, mean): 2.3 h
AUC [2, 14]: 4.5 µM·h
AUC [2, 15]: 7.4 µM·h
Cmax ([2]; serum, 400 mg, Cmax, vorinostat 400 mg PO BID, Day 1, serum, mean): 1.51 µM
Cmax ([2]; serum, 400 mg, Cmax, vorinostat 400 mg PO BID, Day 5 (with FOLFOX), serum, mean): 1.48 µM
Tmax [2, 14]: 1.9 h
Tmax [2, 15]: 2.8 h
half-life ([2]; serum, 400 mg, t1/2, vorinostat 400 mg PO BID, Day 1, serum, mean): 3.7 h
half-life ([2]; serum, 400 mg, t1/2, vorinostat 400 mg PO BID, Day 5 (with FOLFOX), serum, mean): 2.2 h
Cmax ([2]; serum, Cmax of vorinostat, at all dose levels (100-400 mg PO BID)): < 2 µM
CLapp ([2]; vorinostat 100 mg PO BID, Day 1, serum, mean): 189 L/h
CLapp ([2]; vorinostat 100 mg PO BID, Day 5 (with FOLFOX), serum, mean): 202 L/h
CLapp ([2]; vorinostat 200 mg PO BID, Day 1, serum, mean): 400 L/h
CLapp ([2]; vorinostat 200 mg PO BID, Day 5 (with FOLFOX), serum, mean): 231 L/h
CLapp ([2]; vorinostat 300 mg PO BID, Day 1, serum, mean): 285 L/h
CLapp ([2]; vorinostat 300 mg PO BID, Day 5 (with FOLFOX), serum, mean): 225 L/h
CLapp ([2]; vorinostat 400 mg PO BID, Day 1, serum, mean): 345 L/h
CLapp ([2]; vorinostat 400 mg PO BID, Day 5 (with FOLFOX), serum, mean): 211 L/h
Change in vorinostat Clapp, day 5 compared to day 1 ([2]; within patients, 14 patients, p=0.003): significant decrease
Change in vorinostat AUC, day 5 compared to day 1 ([2]; within patients, 14 patients, p=0.005): significant increase
Change in vorinostat Tmax, day 5 compared to day 1 ([2]; within patients, 19 patients, p=0.02): statistically significant increase
Patients with no change in TS staining pattern (IHC) ([3]; 6 paired samples, pre-treatment vs 4th day of vorinostat, cycle 1): 4
Change in TS staining intensity (IHC) ([3]; one patient at DL1 (vorinostat 100 mg PO BID)): decreased intensity from strong to weak
Change in TS staining intensity (IHC) ([3]; one patient at DL4 (vorinostat 400 mg PO BID)): increase in intensity from weak to strong
Down-regulation of TS expression ([4]; in vitro and in vivo models, Q-PCR analysis): ≤ 100 fold
Vorinostat concentration required for effective TS down-regulation ([4]; pre-clinical studies, 24 hours of vorinostat exposure): ≥ 5 µM
Patients with DLT ([5]; DL1 vorinostat 100 mg PO BID + FOLFOX, 3 evaluable patients, cycle 1): None
Patients with DLT ([5]; DL2 vorinostat 200 mg PO BID + FOLFOX, 3 patients, cycle 1): without any DLT
Patients with DLT (fatigue, anorexia, dehydration) ([5]; DL3 vorinostat 300 mg PO BID + FOLFOX, evaluable patients, cycle 1): One of 10
Tolerability of dose-level ([5]; DL4 vorinostat 400 mg PO BID + FOLFOX): intolerable
Patients with DLT (grade 3 fatigue; grade 3 diarrhea in one) ([5]; DL4 vorinostat 400 mg PO BID + FOLFOX, cycle 1): 2 of 4
MTD of vorinostat in combination with FOLFOX ([5]; x 1 week every two weeks, FOLFOX on days 4 and 5): 300 mg PO BID
Objective response [6]: No patient developed an objective response
Patients with confirmed stable disease [6]: 5
Patients with stable disease on 2-month staging CT scan [6]: Eleven
Neutropenia G3 (patients) [7, 16]: 2
Thrombocytopenia G4 (patients) [7, 16]: 2
Grade 3-4 thrombocytopenia (patients) [7, 17]: 5
Grade 3-4 thrombocytopenia (share of patients) [7, 17]: 24%
Cmax [8]: > 20 µM

O=c1[nH]cc(F)c(=O)[nH]1 [5-FU, 5-Fluorouracil]
AUC [9, 18]: 15.3 ± 5.7 ηg*hr/mL
Cmax [9, 18]: 5.03 ± 4.39 ηg/mL
Css [9, 18]: 0.287 ± 0.044 ηg/mL
AUC [9, 19]: 24 ± 9.11 ηg*hr/mL
Cmax [9, 19]: 13.1 ± 7.96 ηg/mL
Css [9, 19]: 0.274 ± 0.045 ηg/mL
AUC [9, 20]: 68.7 ± 88.1 ηg*hr/mL
Cmax [9, 20]: 24.5 ± 14.5 ηg/mL
Css [9, 20]: 0.396 ± 0.159 ηg/mL
AUC [9, 21]: 46.7 ± 10.6 ηg*hr/mL
Cmax [9, 21]: 26.8 ± 11.4 ηg/mL
Css [9, 21]: 0.432 ± 0.077 ηg/mL
median 5-FU Css ([9]; vorinostat 100 mg BID dose group): 3 µg/mL
Median 5-FU AUC ([9]; vorinostat 100 mg dose group): 14 µg·h/mL
median 5-FU Css ([9]; vorinostat 200 mg BID dose group): 16 µg/mL
Median 5-FU AUC ([9]; vorinostat 200 mg dose group): 26 µg·h/mL
median 5-FU Css ([9]; vorinostat 300 mg BID dose group): 20 µg/mL
Median 5-FU AUC ([9]; vorinostat 300 mg dose group): 35 µg·h/mL
median 5-FU Css ([9]; vorinostat 400 mg BID dose group): 23 µg/mL
Median 5-FU AUC ([9]; vorinostat 400 mg dose group): 44 µg·h/mL
